From patent US10005771B2, “Bicyclic derivatives having β2 adrenergic agonist and M3 muscarinic antagonist activities” (Almirall, S.A., priority 2014, dated 2018)

Key:
[1] = biological target: T1, human muscarinic M3 receptors (Homo sapiens, UniProt P20309); test: Human muscarinic M3 receptors binding assay ([3H]-NMS, CHO-K1 membranes); conditions: membranes from CHO-K1 cells, [3H]-NMS radioligand, two hours incubation
T1 construct: purchased Perkin Elmer; host or cells: CHO-K1 cells
Protocol: Test 2: Human Muscarinic M3 Receptors Binding Assays
The study of binding to human muscarinic M3 receptors was performed using commercial membranes (Perkin Elmer) prepared from CHO-K1 cells.
Radioligand binding experiments were conducted in 96 polypropylene well plates in a total volume of 200 μl. All reagents were dissolved in assay binding buffer (PBS with calcium and magnesium, SIGMA), except compounds that were dissolved in DMSO 100%. Non-specific binding (NSB) was measured in the presence of 1 μM atropine. [3H]-NM, used as the radioligand was incubated with membranes that express human muscarinic M3 at concentration of 4.9 μg/well.
After an incubation period of two hours with gentle shaking, 150 μl of the reaction mix were transferred to 96 GF/C filter plates (Millipore), previously treated with wash buffer (Tris 50 mM; NaCl 100 mM; pH: 7.4), containing 0.05% PEI (Sigma) during one hour. Bound and free [3H]-NMS were separated by rapid vacuum filtration in a manifold from Millipore and washed four times with ice cold wash buffer. After drying 30 min, 30 μl of OPTIPHASE Supermix were added to each well and radioactivity quantified using a Microbeta microplate scintillation counter.
The affinity of each test compound to the receptor was determined by using ten different concentrations ran in duplicate. IC50s were calculated using Activity Base software from IDBS and the four parameters-log equation.

[2] = biological target: T2, human adrenergic β2 receptor (Homo sapiens, UniProt P07550); test: Human adrenergic β2 receptor binding assay (3H-CGP12177, Sf9 membranes); conditions: membranes from Sf9 cells, 0.6 nM 3H-CGP12177, 60 minutes at room temperature
T2 construct: purchased Perkin Elmer; host or cells: Sf9 cells
Protocol: Test 1: Human Adrenergic β1 and β2 Receptor Binding Assays
The study of binding to human adrenergic beta1 and beta2 receptors was performed using commercial membranes prepared from Sf9 cells where they are overexpressed (Perkin Elmer). The membrane suspensions (16 μg/well for beta1 and 5 μg/well for beta2) in assay buffer (75 mM Tris/HCl with 12.5 mM MgCl2 and 2 mM EDTA pH=7.4) were incubated with 0.14 or 0.6 nM of 3H-CGP12177 (Amersham) for beta 1 and beta 2 receptors respectively in a final volume of 250 μl, in GFC Multiscreen 96 well plates (Millipore) previously treated with assay buffer containing 0.3% PEI (Sigma). Non specific binding was measured in the presence of 1 μM propanolol. Incubation was maintained for 60 minutes at room temperature and with gentle shaking. The binding reactions were terminated by filtration and washing with 2.5 volumes of Tris/HCl 50 mM pH=7.4. The affinity of each test compound to the receptor was determined by using ten different concentrations ran in duplicate. IC50s were calculated using Activity Base software from IDBS and the four parameters-log equation.

T1 sequence (P20309 whole entry): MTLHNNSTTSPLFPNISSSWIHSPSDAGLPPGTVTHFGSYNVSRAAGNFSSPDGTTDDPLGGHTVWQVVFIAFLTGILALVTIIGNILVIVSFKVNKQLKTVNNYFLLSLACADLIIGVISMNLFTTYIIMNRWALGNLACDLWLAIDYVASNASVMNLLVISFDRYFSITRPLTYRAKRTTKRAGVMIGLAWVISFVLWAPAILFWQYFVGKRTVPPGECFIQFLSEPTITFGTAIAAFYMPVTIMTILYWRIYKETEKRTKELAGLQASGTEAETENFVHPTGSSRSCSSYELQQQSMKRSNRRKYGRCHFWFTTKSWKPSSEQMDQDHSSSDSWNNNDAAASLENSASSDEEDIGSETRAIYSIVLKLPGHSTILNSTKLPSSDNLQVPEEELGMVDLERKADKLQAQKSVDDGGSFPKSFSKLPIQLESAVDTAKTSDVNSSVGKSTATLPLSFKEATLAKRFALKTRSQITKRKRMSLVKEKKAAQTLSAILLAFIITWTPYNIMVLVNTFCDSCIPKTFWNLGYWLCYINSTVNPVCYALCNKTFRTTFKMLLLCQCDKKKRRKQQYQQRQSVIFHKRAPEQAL

Compound | IC50 [1] | IC50 [2]
O=C(NCCCCc1cccc(C2(C(=O)O[C@H]3CN4CCC3CC4)CCCCC2)c1)c1ccc(CNC[C@H](O)c2ccc(O)c3[nH]c(=O)ccc23)nc1 [Example 21, (3R)-1-azabicyclo[2.2.2]oct-3-yl 1-{3-[4-({[6-({[(2R)-2-hydroxy-2-(8-hydroxy-2-oxo-1,2-dihydroquinolin-5-yl)ethyl]amino}methyl)pyridin-3-yl]carbonyl}amino)butyl]phenyl}cyclohexanecarboxylate] | 0.6 nM | 34 nM
COc1cc(C(=O)OCCCCc2cccc(C3(C(=O)O[C@H]4CN5CCC4CC5)CCCCC3)c2)c(Cl)cc1CNC[C@H](O)c1ccc(O)c2[nH]c(=O)ccc12 [Example 22, 4-[3-(1-{[(3R)-1-azabicyclo[2.2.2]oct-3-yloxy]carbonyl}cyclohexyl)phenyl]butyl 2-chloro-4-({[(2R)-2-hydroxy-2-(8-hydroxy-2-oxo-1,2-dihydroquinolin-5-yl)ethyl]amino}methyl)-5-methoxybenzoate] | 0.29 nM | 7.8 nM
O=C1c2ccc(CNC[C@H](O)c3ccc(O)c4[nH]c(=O)ccc34)cc2CN1CCCCc1cccc(C2(C(=O)O[C@H]3CN4CCC3CC4)CCCCC2)c1 [Example 23, (3R)-1-azabicyclo[2.2.2]oct-3-yl 1-(3-{4-[5-({[(2R)-2-hydroxy-2-(8-hydroxy-2-oxo-1,2-dihydroquinolin-5-yl)ethyl]amino}methyl)-1-oxo-1,3-dihydro-2H-isoindol-2-yl]butyl}phenyl)cyclohexanecarboxylate] | 0.61 nM | 26 nM
COc1cc(OCC(=O)NCCCCc2cccc(C3(C(=O)O[C@H]4CN5CCC4CC5)CCCCC3)c2)c(Cl)cc1CNCC(O)c1ccc(O)c2[nH]c(=O)ccc12 (stereo partly drawn) [Example 24, (3R)-1-azabicyclo[2.2.2]oct-3-yl 1-{3-[4-({[2-chloro-4-({[2-hydroxy-2-(8-hydroxy-2-oxo-1,2-dihydroquinolin-5-yl)ethyl]amino}methyl)-5-methoxyphenoxy]acetyl}amino)butyl]phenyl}cyclohexanecarboxylate] | 0.33 nM | 1.9 nM
COc1cc(NC(=O)CCCc2cccc(C3(C(=O)OCC4CCNCC4)CCCCC3)c2)c(Cl)cc1CNC[C@H](O)c1ccc(O)c2[nH]c(=O)ccc12 [Example 28, piperidin-4-ylmethyl 1-[3-(4-{[2-chloro-4-({[(2R)-2-hydroxy-2-(8-hydroxy-2-oxo-1,2-dihydroquinolin-5-yl)ethyl]amino}methyl)-5-methoxyphenyl]amino}-4-oxobutyl)phenyl]cyclohexanecarboxylate] | 0.36 nM | 2.2 nM
COc1cc(NC(=O)CCCc2cccc(C3(C(=O)OCC4CCN(C)CC4)CCCCC3)c2)c(Cl)cc1CNC[C@H](O)c1ccc(O)c2[nH]c(=O)ccc12 [Example 29, (1-methylpiperidin-4-yl)methyl 1-[3-(4-{[2-chloro-4-({[(2R)-2-hydroxy-2-(8-hydroxy-2-oxo-1,2-dihydroquinolin-5-yl)ethyl]amino}methyl)-5-methoxyphenyl]amino}-4-oxobutyl)phenyl]cyclohexanecarboxylate] | 0.57 nM | 2.2 nM
COc1cc(NCC(=O)NCCCc2cccc(C3(C(=O)O[C@H]4CN5CCC4CC5)CCCCC3)c2)c(Cl)cc1CNC[C@H](O)c1ccc(O)c2[nH]c(=O)ccc12 [Example 30, (3R)-1-azabicyclo[2.2.2]oct-3-yl 1-{3-[3-({N-[2-chloro-4-({[(2R)-2-hydroxy-2-(8-hydroxy-2-oxo-1,2-dihydroquinolin-5-yl)ethyl]amino}methyl)-5-methoxyphenyl]glycyl}amino)propyl]phenyl}cyclohexanecarboxylate] | 1.5 nM | 13 nM
COc1cc(NC(=O)CCCc2ccc(C3(C(=O)O[C@H]4CN5CCC4CC5)CCCCC3)cc2)c(Cl)cc1CNC[C@H](O)c1ccc(O)c2[nH]c(=O)ccc12 [Example 31, (3R)-1-azabicyclo[2.2.2]oct-3-yl 1-[4-(4-{[2-chloro-4-({[(2R)-2-hydroxy-2-(8-hydroxy-2-oxo-1,2-dihydroquinolin-5-yl)ethyl]amino}methyl)-5-methoxyphenyl]amino}-4-oxobutyl)phenyl]cyclohexanecarboxylate] | 0.41 nM | 4 nM
(3R)-1-azabicyclo[2.2.2]oct-3-yl 1-(3-{4-[{[2-chloro-4-({[2-hydroxy-2-(8-hydroxy-2-oxo-1,2-dihydroquinolin-5-yl)ethyl]amino}methyl)-5-methoxyphenoxy]acetyl}(methyl)amino]butyl}phenyl)cyclohexanecarboxylate [Example 26] | 0.53 nM | 3 nM
